Publication PMC11676667, “Pharmacokinetics of Oral Cannabinoid Δ8-Tetrahydrocannabivarin and Its Main Metabolites in Healthy Participants” (Pharmaceuticals, 2024)
Read-outs that look alike come from different tables or passages of the source.

Test: Plasma pharmacokinetics after single oral dose of Δ8-THCV in MCT oil (LC-MS/MS, non-compartmental analysis)
Type: in vivo, human
Settings: for concentration at 0.5 h / concentration at 1 h / concentration at 2 h / concentration at 4 h / concentration at 6 h / concentration at 8 h / AUC(0-t) / Cmax / MRT / Tmax: human; for concentration at 0.5 h / concentration at 1 h / concentration at 2 h / concentration at 4 h / concentration at 6 h / concentration at 8 h: oral; for AUC(0-t) / Cmax / MRT / Tmax: po; for MRT: read-out: MRT (mean residence time)
Procedure: The study was a two-phase, dose-ranging, placebo-controlled trial in 21 healthy participants to assess the safety, tolerability, PK, and PD of an oral formulation of Δ8-THCV. A detailed description of the study was published elsewhere. The study product was a medium-chain triglyceride (MCT) oil oral formulation of Δ8-THCV at a concentration of 50 mg/mL. […] MCT oil was used as placebo.
Twenty-one participants were enrolled in the clinical study and plasma samples from 15 participants were sent to our laboratory for pharmacokinetic evaluation. Of these, 3 participants were enrolled in Phase 1, an unblinded, placebo-controlled, single ascending dose design and 12 were enrolled in Phase 2, a double-blind, randomized, placebo-controlled, within-participant crossover design. At each study session, participants received one of the following oral doses: placebo, 12.5 mg, 25 mg, 50 mg, 100 mg, and 200 mg of the aforementioned Δ8-THCV formulation in MCT. Study visits were separated by a washout period of a minimum of one week and maximum of 28 days. Participants entered the research facility the night before the session and received the study product in the morning after a standardized high-fat, high-calorie breakfast. PK blood samples included in this analysis were collected prior to dosing and 0.5, 1, 2, 4, 6, and 8 h after dose. Immediately following collection into K2EDTA tubes, blood samples were placed on wet ice, centrifuged, and plasma was immediately frozen at −80 °C until shipment to the bioanalytical laboratory (iC42 Clinical Research and Development, University of Colorado, Aurora, CO, USA) on dry ice.
Plasma samples were analyzed using a validated high-performance liquid chromatography–tandem mass spectrometry (LC-MS/MS) assay. The assay included Δ8-THCV and its main metabolites 11-OH-Δ8-THCV and Δ8-THCV-COOH, Δ9-THCV and its main metabolite Δ9-THCV-COOH, and Δ9-THC and Δ8-THC as well as their main metabolites (Figure 3). The complete list of analyzed compounds and a summary of the key performance parameters of the assay are presented in Appendix A and Table A1 and Table A2. […] For the PK analysis, concentrations below the lower limit of quantification were set to 0 ng/mL. PK parameters were calculated using non-compartmental analysis (Phoenix WinNonlin version 8.4., Certara, Princeton, NJ, USA). Statistical analysis was carried out using GraphPad Prism (version 10, Boston, MA, USA).

[1] = plasma, 100 mg, 100 mg Δ8-THCV dose, Median (IQ Range)
[2] = plasma, 100 mg, 100 mg Δ8-THCV dose, Mean (SD, %CV)
[3] = plasma, 200 mg, 200 mg Δ8-THCV dose, Mean (SD, %CV)
[4] = plasma, 200 mg, 200 mg Δ8-THCV dose, Median (IQ Range)
[5] = plasma, 12.5 mg, 12.5 mg single oral Δ8-THCV in MCT oil, Mean (±SD)
[6] = plasma, 12.5 mg, 12.5 mg single oral Δ8-THCV in MCT oil, Median (Range)
[7] = plasma, 25 mg, 25 mg single oral Δ8-THCV in MCT oil, Mean (±SD)
[8] = plasma, 25 mg, 25 mg single oral Δ8-THCV in MCT oil, Median (Range)
[9] = plasma, 50 mg, 50 mg single oral Δ8-THCV in MCT oil, Mean (±SD)
[10] = plasma, 50 mg, 50 mg single oral Δ8-THCV in MCT oil, Median (Range)
[11] = plasma, 100 mg, 100 mg single oral Δ8-THCV in MCT oil, Mean (±SD)
[12] = plasma, 100 mg, 100 mg single oral Δ8-THCV in MCT oil, Median (Range)
[13] = plasma, 200 mg, 200 mg single oral Δ8-THCV in MCT oil, Mean (±SD)
[14] = plasma, 200 mg, 200 mg single oral Δ8-THCV in MCT oil, Median (Range)

CCCc1cc(O)c2c(c1)OC(C)(C)[C@@H]1CC=C(C(=O)O)C[C@@H]21 [Δ8-THCV-COOH, 11-nor-9-carboxy-Δ8-THCV]
concentration at 0.5 h [1]: 1.7 ng/mL
concentration at 1 h [2]: 202 ng/mL
concentration at 1 h [1]: 79.5 ng/mL
concentration at 2 h [2]: 306 ng/mL
concentration at 2 h [1]: 275 ng/mL
concentration at 4 h [2]: 556 ng/mL
concentration at 4 h [1]: 547 ng/mL
concentration at 6 h [2]: 512 ng/mL
concentration at 6 h [1]: 497 ng/mL
concentration at 8 h [2]: 319 ng/mL
concentration at 8 h [1]: 304 ng/mL
concentration at 0.5 h [3]: 5.6 ng/mL
concentration at 0.5 h [4]: 0 ng/mL
concentration at 1 h [3]: 158 ng/mL
concentration at 1 h [4]: 108 ng/mL
concentration at 2 h [3]: 653 ng/mL
concentration at 2 h [4]: 319 ng/mL
concentration at 4 h [3]: 1300 ng/mL
concentration at 4 h [4]: 1110 ng/mL
concentration at 6 h [3]: 1170 ng/mL
concentration at 6 h [4]: 1020 ng/mL
concentration at 8 h [3]: 917 ng/mL
concentration at 8 h [4]: 855 ng/mL
AUC(0-t) [5]: 398 ng·h/mL
Cmax [5]: 99 ng/mL
AUC(0-t) [6]: 331 ng·h/mL
Cmax [6]: 101 ng/mL
MRT (plasma, 12.5 mg, 12.5 mg single oral Δ8-THCV in MCT oil, plasma, Mean (±SD)): 4.9 h
Tmax (plasma, 12.5 mg, 12.5 mg single oral Δ8-THCV in MCT oil, plasma, Mean (±SD), read-out: tmax): 4.9 h
MRT (plasma, 12.5 mg, 12.5 mg single oral Δ8-THCV in MCT oil, plasma, Median (Range)): 4.9 h
Tmax (plasma, 12.5 mg, 12.5 mg single oral Δ8-THCV in MCT oil, plasma, Median (Range), read-out: tmax): 4 h
AUC(0-t) [7]: 642 ng·h/mL
Cmax [7]: 151 ng/mL
AUC(0-t) [8]: 574 ng·h/mL
Cmax [8]: 116 ng/mL
MRT (plasma, 25 mg, 25 mg single oral Δ8-THCV in MCT oil, plasma, Mean (±SD)): 4.8 h
Tmax (plasma, 25 mg, 25 mg single oral Δ8-THCV in MCT oil, plasma, Mean (±SD), read-out: tmax): 4.6 h
MRT (plasma, 25 mg, 25 mg single oral Δ8-THCV in MCT oil, plasma, Median (Range)): 4.6 h
Tmax (plasma, 25 mg, 25 mg single oral Δ8-THCV in MCT oil, plasma, Median (Range), read-out: tmax): 4 h
AUC(0-t) [9]: 1210 ng·h/mL
Cmax [9]: 324 ng/mL
AUC(0-t) [10]: 1090 ng·h/mL
Cmax [10]: 275 ng/mL
MRT (plasma, 50 mg, 50 mg single oral Δ8-THCV in MCT oil, plasma, Mean (±SD)): 5.3 h
Tmax (plasma, 50 mg, 50 mg single oral Δ8-THCV in MCT oil, plasma, Mean (±SD), read-out: tmax): 5.3 h
MRT (plasma, 50 mg, 50 mg single oral Δ8-THCV in MCT oil, plasma, Median (Range)): 5.3 h
Tmax (plasma, 50 mg, 50 mg single oral Δ8-THCV in MCT oil, plasma, Median (Range), read-out: tmax): 6 h
AUC(0-t) [11]: 3070 ng·h/mL
Cmax [11]: 756 ng/mL
AUC(0-t) [12]: 3130 ng·h/mL
Cmax [12]: 699 ng/mL
MRT (plasma, 100 mg, 100 mg single oral Δ8-THCV in MCT oil, plasma, Mean (±SD)): 4.8 h
Tmax (plasma, 100 mg, 100 mg single oral Δ8-THCV in MCT oil, plasma, Mean (±SD), read-out: tmax): 4.7 h
MRT (plasma, 100 mg, 100 mg single oral Δ8-THCV in MCT oil, plasma, Median (Range)): 4.6 h
Tmax (plasma, 100 mg, 100 mg single oral Δ8-THCV in MCT oil, plasma, Median (Range), read-out: tmax): 4 h
AUC(0-t) [13]: 6960 ng·h/mL
Cmax [13]: 1740 ng/mL
AUC(0-t) [14]: 6000 ng·h/mL
Cmax [14]: 1900 ng/mL
MRT (plasma, 200 mg, 200 mg single oral Δ8-THCV in MCT oil, plasma, Mean (±SD)): 5.1 h
Tmax (plasma, 200 mg, 200 mg single oral Δ8-THCV in MCT oil, plasma, Mean (±SD), read-out: tmax): 5.3 h
MRT (plasma, 200 mg, 200 mg single oral Δ8-THCV in MCT oil, plasma, Median (Range)): 5.1 h
Tmax (plasma, 200 mg, 200 mg single oral Δ8-THCV in MCT oil, plasma, Median (Range), read-out: tmax): 6 h
Tmax (plasma, across oral Δ8-THCV doses 12.5-200 mg, plasma, read-out: median time-to-maximum concentration (tmax), range across doses): 4.6 to 5.3 h
number of positive plasma samples (of 504 plasma samples from 15 participants after oral Δ8-THCV): 381
concentration in representative plasma sample (one subject after oral Δ8-THCV in MCT oil, Figure A1): 1026 ng/mL
median systemic exposure (plasma AUClast) relative to parent compound (oral Δ8-THCV): 36 fold
plasma concentration relative to Δ8-THCV, on average at each timepoint (oral Δ8-THCV): 10 fold
increase of median AUClast every two-fold increase in the dose (oral Δ8-THCV 12.5-200 mg, plasma): 1.7- to 2.9 fold
